{"source": "patent US8058295B2", "about": "“Cystic fibrosis transmembrane conductance regulator protein inhibitors and uses thereof” (The Regents of the University of California, priority 2002, dated 2011)", "key": {"MDR-1": {"target": "T1, MDR-1 (Homo sapiens, UniProt P08183)", "T1 construct": "endogenous in cells; host or cells: 9HTEo-/Dx cells", "T1 sequence (P08183 whole entry)": "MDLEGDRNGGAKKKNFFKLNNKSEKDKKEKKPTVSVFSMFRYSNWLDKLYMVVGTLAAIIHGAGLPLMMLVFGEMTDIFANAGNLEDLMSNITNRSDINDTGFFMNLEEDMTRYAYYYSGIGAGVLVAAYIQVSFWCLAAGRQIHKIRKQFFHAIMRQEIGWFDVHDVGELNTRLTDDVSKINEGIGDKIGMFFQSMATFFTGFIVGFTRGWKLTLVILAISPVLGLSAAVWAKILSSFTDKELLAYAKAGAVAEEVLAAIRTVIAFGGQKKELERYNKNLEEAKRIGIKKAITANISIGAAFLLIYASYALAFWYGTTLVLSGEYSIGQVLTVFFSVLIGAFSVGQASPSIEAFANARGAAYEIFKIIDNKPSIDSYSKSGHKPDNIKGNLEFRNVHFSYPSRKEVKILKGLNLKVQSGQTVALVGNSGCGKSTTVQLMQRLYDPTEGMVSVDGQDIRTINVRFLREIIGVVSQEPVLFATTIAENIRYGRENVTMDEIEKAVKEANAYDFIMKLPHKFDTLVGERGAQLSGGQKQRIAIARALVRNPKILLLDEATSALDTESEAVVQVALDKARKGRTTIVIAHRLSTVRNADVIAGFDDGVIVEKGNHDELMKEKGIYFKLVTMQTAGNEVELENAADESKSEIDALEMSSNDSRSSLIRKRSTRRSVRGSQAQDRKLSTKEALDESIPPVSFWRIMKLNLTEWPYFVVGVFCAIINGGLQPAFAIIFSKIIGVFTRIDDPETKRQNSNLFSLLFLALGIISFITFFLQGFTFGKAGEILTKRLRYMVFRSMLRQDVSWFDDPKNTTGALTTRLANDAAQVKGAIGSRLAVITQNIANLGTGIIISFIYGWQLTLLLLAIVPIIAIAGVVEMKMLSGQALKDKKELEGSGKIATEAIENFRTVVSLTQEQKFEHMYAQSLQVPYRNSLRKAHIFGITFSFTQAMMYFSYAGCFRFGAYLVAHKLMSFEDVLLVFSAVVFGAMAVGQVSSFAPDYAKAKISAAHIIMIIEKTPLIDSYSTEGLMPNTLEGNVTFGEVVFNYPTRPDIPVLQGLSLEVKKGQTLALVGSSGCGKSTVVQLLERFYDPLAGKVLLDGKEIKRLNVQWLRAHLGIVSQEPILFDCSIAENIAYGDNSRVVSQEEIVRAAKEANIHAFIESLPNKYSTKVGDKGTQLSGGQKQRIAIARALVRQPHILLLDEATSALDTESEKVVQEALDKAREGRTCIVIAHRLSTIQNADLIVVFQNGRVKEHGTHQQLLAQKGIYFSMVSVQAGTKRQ", "assay": "MDR-1 activity, ^3H-vincristine accumulation in 9HTEo-/Dx cells", "format": "cell-based", "conditions": "5 μM"}, "urea transporter (UT-B)": {"target": "T2, urea transporter (UT-B) (Homo sapiens, UniProt Q13336)", "T2 sequence (Q13336 1-389)": "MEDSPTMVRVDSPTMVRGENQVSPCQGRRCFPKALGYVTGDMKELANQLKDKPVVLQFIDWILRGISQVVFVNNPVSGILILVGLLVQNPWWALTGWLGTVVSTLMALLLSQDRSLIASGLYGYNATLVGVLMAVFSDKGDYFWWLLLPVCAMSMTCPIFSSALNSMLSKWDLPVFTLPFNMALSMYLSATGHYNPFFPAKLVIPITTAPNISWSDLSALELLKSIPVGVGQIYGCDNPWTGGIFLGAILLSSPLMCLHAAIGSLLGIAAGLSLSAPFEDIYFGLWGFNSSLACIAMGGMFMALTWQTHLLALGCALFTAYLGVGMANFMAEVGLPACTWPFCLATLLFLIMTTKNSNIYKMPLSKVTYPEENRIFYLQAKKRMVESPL", "assay": "Urea transporter block", "conditions": "5 μM"}, "[1]": {"target": "T3, Na^+/H^+ exchanger (NHE3) (Homo sapiens, UniProt P48764)", "T3 sequence (P48764 26-834)": "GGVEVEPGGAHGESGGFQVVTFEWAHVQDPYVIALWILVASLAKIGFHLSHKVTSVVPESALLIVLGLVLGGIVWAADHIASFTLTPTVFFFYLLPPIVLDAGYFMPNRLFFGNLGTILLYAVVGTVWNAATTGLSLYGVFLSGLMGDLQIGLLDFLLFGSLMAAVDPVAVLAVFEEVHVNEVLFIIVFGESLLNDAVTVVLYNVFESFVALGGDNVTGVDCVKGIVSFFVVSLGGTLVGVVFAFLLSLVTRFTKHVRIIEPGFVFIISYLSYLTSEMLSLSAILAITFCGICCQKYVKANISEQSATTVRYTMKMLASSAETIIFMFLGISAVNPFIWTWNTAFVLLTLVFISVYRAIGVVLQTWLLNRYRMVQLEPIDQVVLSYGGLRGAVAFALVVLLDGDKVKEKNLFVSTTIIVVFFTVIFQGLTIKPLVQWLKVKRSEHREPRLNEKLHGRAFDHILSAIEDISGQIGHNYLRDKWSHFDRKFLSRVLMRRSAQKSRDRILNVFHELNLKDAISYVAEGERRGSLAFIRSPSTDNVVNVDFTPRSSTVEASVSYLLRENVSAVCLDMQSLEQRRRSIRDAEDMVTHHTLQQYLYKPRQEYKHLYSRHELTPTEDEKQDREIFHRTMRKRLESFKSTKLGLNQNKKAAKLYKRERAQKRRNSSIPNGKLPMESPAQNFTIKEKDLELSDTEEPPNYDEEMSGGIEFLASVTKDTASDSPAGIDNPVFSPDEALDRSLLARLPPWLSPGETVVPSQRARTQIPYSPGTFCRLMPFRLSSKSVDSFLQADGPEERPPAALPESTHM", "assay": "Na^+/H^+ exchanger block", "conditions": "5 μM"}, "FRT cells": {"tested_on": "FRT cells", "assay": "Cell toxicity by dihydrorhodamine method", "format": "cell-based, rat", "conditions": "dihydrorhodamine assay, after 24 hours"}, "[2]": {"tested_on": "cholera toxin-induced intestinal fluid secretion", "design": "species or system mice", "conditions": "mouse, in vivo, ip"}, "[3]": {"tested_on": "cholera toxin-induced intestinal fluid secretion", "design": "species or system mice", "conditions": "mouse, in vivo, po"}, "[4]": {"tested_on": "cholera toxin-induced fluid secretion", "design": "species or system mice", "conditions": "mouse, in vivo, po"}, "[5]": {"assay": "Tissue distribution in rats after intravenous bolus", "format": "in vivo", "conditions": "60 min after i.v. bolus", "description": "A bolus of ^14C-CFTRinh-172 (2 μCi) was administered intravenously over 1 min in mice (male CD1 mice, 30-35 grams) by tail vein. Mice were sacrificed at 5, 30, 120 and 240 min. Organs were removed, weighed and homogenized in distilled water (10-50 vol %). Radioactivity was determined by scintillation counting of the homogenates (25-50 μL) and expressed as total ^14C-radioactivity per organ (or per gram tissue for skeletal muscle). At the same time blood, urine and bile (from gallbladder or duodenum) were collected and ^14C-radioactivity was measured and expressed per mL of fluid. Elimination studies were done by collections of urine and stool over the first 24 hr after ^14C-CFTRinh-172 administration. Tissue distribution studies were also done on rats prepared as for pharmacokinetic studies."}, "[6]": {"assay": "Analysis of inhibitor metabolism by thin layer chromatography and autoradiography", "format": "in vivo, mice", "conditions": "urine, serum, bile, liver homogenate; TLC autoradiography", "text": "Film was exposed for autoradiography for 48 hr (left panel) and 12 hr (right panel).\nAliquots of bodily fluids (plasma, urine, bile) and liver homogenate were spotted onto Silica plates and resolved by thin layer chromatography using a ethyl acetate:hexane:methanol (1:1:0.1) solvent system which gave rf ˜0.5 for the original inhibitor."}, "[7]": {"assay": "pKa by spectrophotometric pH titration", "format": "physicochemical"}, "[8]": {"assay": "Pharmacokinetic and oral bioavailability studies in mice", "format": "in vivo", "description": "For comparison other mice were given ^14C-CFTRinh-172 (2 μCi) intravenously by tail vein infusion. Blood was collected from the tail vein at specified times for measurement of plasma ^14C radioactivity. At 6 hours mice were killed by pentobarbital overdose and organs were removed for measurement of radioactivity in homogenates."}, "[9]": {"tested_on": "cholera toxin-induced fluid secretion", "design": "species or system rats", "conditions": "in vivo"}, "CFTR [10]": {"target": "T4, CFTR (Mus musculus, UniProt P26361)", "T4 construct": "from tissue; host or cells: mouse ileum (wildtype CD1 mice)", "T4 sequence (P26361 whole entry)": "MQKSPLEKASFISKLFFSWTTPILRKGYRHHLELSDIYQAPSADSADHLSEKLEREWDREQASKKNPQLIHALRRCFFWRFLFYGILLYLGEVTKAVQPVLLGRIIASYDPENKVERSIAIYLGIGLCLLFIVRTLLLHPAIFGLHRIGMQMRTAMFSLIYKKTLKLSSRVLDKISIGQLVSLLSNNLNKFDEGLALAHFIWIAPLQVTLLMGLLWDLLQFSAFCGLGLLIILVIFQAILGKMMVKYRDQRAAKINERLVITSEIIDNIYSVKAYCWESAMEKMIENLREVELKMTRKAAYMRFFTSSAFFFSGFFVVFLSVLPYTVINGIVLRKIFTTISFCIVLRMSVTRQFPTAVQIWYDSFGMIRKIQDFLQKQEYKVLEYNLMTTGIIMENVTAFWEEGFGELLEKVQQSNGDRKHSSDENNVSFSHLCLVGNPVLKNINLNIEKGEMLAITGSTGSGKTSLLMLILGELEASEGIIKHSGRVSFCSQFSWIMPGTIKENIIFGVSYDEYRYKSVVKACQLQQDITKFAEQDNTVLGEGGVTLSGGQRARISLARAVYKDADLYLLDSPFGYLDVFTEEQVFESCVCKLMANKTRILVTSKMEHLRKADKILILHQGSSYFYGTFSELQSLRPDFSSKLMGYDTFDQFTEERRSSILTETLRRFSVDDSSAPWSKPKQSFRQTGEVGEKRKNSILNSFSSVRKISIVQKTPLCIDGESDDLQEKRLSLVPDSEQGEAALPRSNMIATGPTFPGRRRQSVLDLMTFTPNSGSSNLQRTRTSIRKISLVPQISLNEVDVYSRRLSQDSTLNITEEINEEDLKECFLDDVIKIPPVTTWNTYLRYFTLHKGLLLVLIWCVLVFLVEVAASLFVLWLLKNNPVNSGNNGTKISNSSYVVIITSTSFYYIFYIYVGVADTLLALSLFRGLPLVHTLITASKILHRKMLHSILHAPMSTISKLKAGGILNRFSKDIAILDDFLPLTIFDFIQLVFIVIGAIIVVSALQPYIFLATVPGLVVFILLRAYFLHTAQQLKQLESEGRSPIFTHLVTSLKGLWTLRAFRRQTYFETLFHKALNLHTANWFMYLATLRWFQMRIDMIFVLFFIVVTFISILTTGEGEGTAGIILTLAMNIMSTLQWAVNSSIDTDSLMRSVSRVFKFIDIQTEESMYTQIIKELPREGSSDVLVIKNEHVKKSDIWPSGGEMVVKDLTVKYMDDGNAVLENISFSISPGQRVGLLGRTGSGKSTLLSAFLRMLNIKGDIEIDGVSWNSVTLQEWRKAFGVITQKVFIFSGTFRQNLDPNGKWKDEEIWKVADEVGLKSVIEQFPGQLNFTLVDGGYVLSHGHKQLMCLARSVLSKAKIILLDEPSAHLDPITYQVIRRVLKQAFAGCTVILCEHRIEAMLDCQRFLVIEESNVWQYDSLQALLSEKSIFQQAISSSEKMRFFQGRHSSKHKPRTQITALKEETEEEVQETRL", "assay": "Short-circuit current in mouse ileum"}, "CFTR [11]": {"target": "T5, CFTR (Homo sapiens, UniProt P13569)", "T5 sequence (P13569 whole entry)": "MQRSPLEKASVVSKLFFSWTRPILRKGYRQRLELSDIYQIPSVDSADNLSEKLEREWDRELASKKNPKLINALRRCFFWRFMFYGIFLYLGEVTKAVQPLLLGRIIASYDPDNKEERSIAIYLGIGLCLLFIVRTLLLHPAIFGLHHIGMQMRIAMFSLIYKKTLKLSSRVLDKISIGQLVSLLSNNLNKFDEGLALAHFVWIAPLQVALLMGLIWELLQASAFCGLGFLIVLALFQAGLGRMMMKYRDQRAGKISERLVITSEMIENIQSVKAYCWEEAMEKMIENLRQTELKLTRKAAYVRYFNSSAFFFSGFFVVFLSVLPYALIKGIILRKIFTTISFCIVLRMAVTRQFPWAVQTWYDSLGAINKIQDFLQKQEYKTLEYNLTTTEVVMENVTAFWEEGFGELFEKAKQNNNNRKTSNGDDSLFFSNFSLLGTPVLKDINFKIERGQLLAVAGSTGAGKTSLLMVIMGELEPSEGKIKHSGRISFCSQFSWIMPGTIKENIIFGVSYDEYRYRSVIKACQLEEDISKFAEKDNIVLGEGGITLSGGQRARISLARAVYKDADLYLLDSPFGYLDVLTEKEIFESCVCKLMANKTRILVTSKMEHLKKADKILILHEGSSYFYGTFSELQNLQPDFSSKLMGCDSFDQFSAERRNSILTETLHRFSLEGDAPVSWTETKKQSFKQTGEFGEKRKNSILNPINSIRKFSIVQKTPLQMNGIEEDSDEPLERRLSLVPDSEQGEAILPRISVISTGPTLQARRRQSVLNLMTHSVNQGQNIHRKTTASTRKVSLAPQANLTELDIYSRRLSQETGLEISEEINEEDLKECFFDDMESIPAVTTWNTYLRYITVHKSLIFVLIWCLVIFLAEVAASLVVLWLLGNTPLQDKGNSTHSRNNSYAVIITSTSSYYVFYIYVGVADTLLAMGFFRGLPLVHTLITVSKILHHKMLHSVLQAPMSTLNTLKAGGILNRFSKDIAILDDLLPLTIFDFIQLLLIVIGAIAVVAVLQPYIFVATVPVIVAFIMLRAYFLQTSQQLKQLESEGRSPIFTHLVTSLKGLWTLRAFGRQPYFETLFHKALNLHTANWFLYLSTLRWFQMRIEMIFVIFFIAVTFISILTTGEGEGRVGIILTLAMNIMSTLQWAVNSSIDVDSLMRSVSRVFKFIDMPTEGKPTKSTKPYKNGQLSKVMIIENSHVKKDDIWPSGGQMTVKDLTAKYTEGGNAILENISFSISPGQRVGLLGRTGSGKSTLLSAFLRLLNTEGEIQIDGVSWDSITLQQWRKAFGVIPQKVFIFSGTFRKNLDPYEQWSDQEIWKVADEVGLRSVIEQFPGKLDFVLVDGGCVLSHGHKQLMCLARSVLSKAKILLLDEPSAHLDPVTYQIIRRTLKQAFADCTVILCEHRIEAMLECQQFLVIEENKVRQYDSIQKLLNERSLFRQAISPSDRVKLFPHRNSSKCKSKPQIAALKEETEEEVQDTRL"}, "CFTR [12]": {"target": "T5, CFTR", "assay": "Electrophysiological studies in Calu-3 cells", "format": "cell-based", "design": "cells that natively express wildtype CFTR, including T84 cells; endogenous in cells; host or cells: T84 colonic epithelial cells (UCSF cell culture facility)", "conditions": "read-out: apparent potency in electrophysiological studies"}}, "note": "Entries after “also recorded” stand apart in the source; their conditions may differ. Read-outs that look alike come from different tables or passages of the source.", "data": [{"smiles": "O=C(O)c1ccc(/C=C2\\SC(=S)N(c3cccc(C(F)(F)F)c3)C2=O)cc1", "note": "[CFTRinh-172, 3-[(3-trifluoromethyl)phenyl]-5-[(4-carboxyphenyl)methylene]-2-thioxo-4-thiazolidinone]", "values": [{"measurement": "vincristine accumulation", "setting": "MDR-1", "result": "did not affect vincristine accumulation"}, {"measurement": "block of urea transporter (UT-B)", "setting": "urea transporter (UT-B)", "result": "did not block"}, {"measurement": "block of Na^+/H^+ exchanger (NHE3)", "setting": "[1]", "result": "did not block"}, {"measurement": "concentration non-toxic to FRT cells", "setting": "FRT cells", "result": "up to 100 μM"}, {"measurement": "fluid accumulation in cholera toxin-treated loops", "setting": "[2]", "result": "effectively prevented fluid accumulation; also recorded: significantly reduced fluid secretion to that in saline control loops"}, {"measurement": "inhibition of fluid accumulation in cholera toxin-injected loops", "setting": "[2]", "result": "~90", "unit": "%"}, {"measurement": "inhibition of luminal fluid accumulation", "setting": "[2]", "result": "significant inhibition of luminal fluid accumulation; also recorded: much less inhibition"}, {"measurement": "t1/2 for persistence of inhibition", "setting": "[2]", "result": "9 to 10", "unit": "h"}, {"measurement": "intestinal fluid accumulation (ratio of intestinal weight before vs. after luminal fluid removal)", "setting": "[3]", "result": "remarkably reduced intestinal fluid accumulation"}, {"measurement": "cholera toxin-induced fluid secretion", "setting": "[4]", "result": "Inhibition of cholera toxin-induced fluid secretion"}, {"measurement": "organ distribution of ^14C radioactivity", "setting": "[5]", "result": "little radioactivity in brain, heart and skeletal muscle"}, {"measurement": "chemical modification (metabolism)", "setting": "[6]", "result": "did not occur"}, {"measurement": "fraction present as the unionized acid", "setting": "[7]; physiological pH", "result": "~1", "unit": "%"}, {"measurement": "pKa", "setting": "[7]; spectrophotometric pH titration", "result": 5.5}, {"measurement": "organ distribution", "setting": "[8]; 6 hr after oral and intravenous administration", "result": "accumulation in the gastrointestinal tract as well as the liver and kidney"}, {"measurement": "oral bioavailability", "setting": "[8]; TPGS preparation, oral vs. intravenous tissue/serum content at 4-6 hr", "result": "15-20%"}, {"measurement": "time over which high initial serum concentrations decreased (tissue redistribution)", "setting": "[8]; mice, intravenous", "result": "~30", "unit": "min"}, {"measurement": "time of peak serum radioactivity", "setting": "[8]; mice, oral administration in TPGS", "result": "60 to 90", "unit": "min"}, {"measurement": "concentration of ^14C radioactivity in bile vs. serum", "setting": "[8]; mouse, in vivo", "result": "~10", "unit": "fold"}, {"measurement": "radioactivity excreted in the stool", "setting": "[8]; over 24 hr", "result": "< 10 % of total excreted radioactivity"}, {"measurement": "cholera-toxin induced fluid secretion in rat intestinal loops", "setting": "[9]", "result": "prevented cholera-toxin induced fluid secretion"}, {"measurement": "IC50", "setting": "CFTR [10]; forskolin (cAMP-dependent chloride secretion), read-out: concentration for fifty percent inhibition of short-circuit current", "result": "~5", "unit": "µM"}, {"measurement": "IC50", "setting": "CFTR [10]; intact intestine, read-out: apparent potency for inhibition of intestinal short-circuit current", "result": "2 to 5", "unit": "µM"}, {"measurement": "effect on membrane current", "setting": "CFTR [11]; 2 μM extracellular perfusion, after 5 μM forskolin", "result": "rapid reduction in current at all membrane potentials"}, {"measurement": "inhibition at 0.2 µM", "setting": "CFTR [11]; FRT, read-out: inhibition of membrane current", "result": "~50", "unit": "%"}, {"measurement": "IC50", "setting": "CFTR [12]", "result": 0.5, "unit": "µM"}]}]}
